Experimental data as given in ChEMBL document CHEMBL1201862, “PubChem BioAssay data set” (2004).
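Where inhibition never reached the appropriate level, the endpoint shown equals the highest concentration tested. Otherwise, values were interpolated linearly from a five-concentration, 48-hour dose response in 96-well plates. At the GI50, growth is halved.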 Activity calls are given as the source filed them. Rule as the data show it: active = GI50 up to about 1.1 µM and inactive = higher.

Tests used:
Test in all cases: inhibition of tumour cell growth, NCI panel, 48 h
HT-29 = system: HT-29
HL-60 = system: HL-60
SF-268 = system: SF-268
MCF7 = system: MCF7
OVCAR-3 = system: OVCAR-3
PC-3 = system: PC-3
Malme-3M = system: Malme-3M
SNB-19 = system: SNB-19
UO-31 = system: UO-31
SK-MEL-28 = system: SK-MEL-28
DU-145 = system: DU-145
UACC-257 = system: UACC-257
EKVX = system: EKVX
RPMI-8226 = system: RPMI-8226
K562 = system: K562
MDA-MB-231 = system: MDA-MB-231
MDA-N = system: MDA-N
SK-MEL-2 = system: SK-MEL-2
U-251 = system: U-251
A549 = system: A549
M14 = system: M14
HCT-116 = system: HCT-116
ACHN = system: ACHN
UACC-62 = system: UACC-62
LOX IMVI = system: LOX IMVI
NCI-H23 = system: NCI-H23
RXF 393 = system: RXF 393
KM12 = system: KM12
CCRF-CEM = system: CCRF-CEM
COLO 205 = system: COLO 205
TK-10 = system: TK-10
BT-549 = system: BT-549
T47D = system: T47D
NCI-H460 = system: NCI-H460
SR = system: SR
SK-OV-3 = system: SK-OV-3
SF-539 = system: SF-539
SK-MEL-5 = system: SK-MEL-5
HCC 2998 = system: HCC 2998
MDA-MB-435 = system: MDA-MB-435
HOP-62 = system: HOP-62
IGROV-1 = system: IGROV-1
SW-620 = system: SW-620
NCI/ADR-RES = system: NCI/ADR-RES
A498 = system: A498
SN12C = system: SN12C
SF-295 = system: SF-295
NCI-H522 = system: NCI-H522
HCT-15 = system: HCT-15
OVCAR-4 = system: OVCAR-4
HOP-92 = system: HOP-92
786-0 = system: 786-0
OVCAR-5 = system: OVCAR-5
CAKI-1 = system: CAKI-1
OVCAR-8 = system: OVCAR-8
Hs-578T = system: Hs-578T
MOLT-4 = system: MOLT-4
SNB-75 = system: SNB-75
NCI-H226 = system: NCI-H226

Measured: GI50

COC(=O)[C@@H](NC1(c2ccccc2)c2ccccc2-c2ccccc21)[C@@H](C(=O)OC)N(NC(=O)OCc1ccccc1)C(=O)OCc1ccccc1.COC(=O)[C@@H](NC1(c2ccccc2)c2ccccc2-c2ccccc21)[C@H](C(=O)OC)N(NC(=O)OCc1ccccc1)C(=O)OCc1ccccc1
inactive: HT-29 > 100 µM | HL-60 > 100 µM | SF-268 > 100 µM | MCF7 > 100 µM | OVCAR-3 > 100 µM | PC-3 > 100 µM | Malme-3M 27.4 µM | SNB-19 > 100 µM | UO-31 > 100 µM | SK-MEL-28 > 100 µM | DU-145 > 100 µM | UACC-257 > 100 µM | EKVX 21.4 µM | RPMI-8226 > 100 µM | K562 > 100 µM | MDA-MB-231 > 100 µM | MDA-N > 100 µM | SK-MEL-2 > 100 µM | U-251 33.8 µM | A549 > 100 µM | M14 > 100 µM | HCT-116 > 100 µM | ACHN > 100 µM | UACC-62 > 100 µM | LOX IMVI > 100 µM | NCI-H23 > 100 µM | RXF 393 > 100 µM | KM12 > 100 µM | CCRF-CEM > 100 µM | COLO 205 > 100 µM | TK-10 > 100 µM | BT-549 > 100 µM | T47D > 100 µM | NCI-H460 > 100 µM | SR > 100 µM | SK-OV-3 > 100 µM | SF-539 > 100 µM | SK-MEL-5 > 100 µM | HCC 2998 86.9 µM | MDA-MB-435 > 100 µM | HOP-62 > 100 µM | IGROV-1 > 100 µM | SW-620 > 100 µM | NCI/ADR-RES > 100 µM | A498 > 100 µM | SN12C > 100 µM | SF-295 > 100 µM | NCI-H522 29.2 µM | OVCAR-4 > 100 µM | HOP-92 > 100 µM | 786-0 > 100 µM | OVCAR-5 > 100 µM | CAKI-1 > 100 µM | OVCAR-8 > 100 µM | Hs-578T > 100 µM | MOLT-4 > 100 µM
> 100 µM: HCT-15

CCCCCC/C=C\CCCCCCCCCc1cccc(O)c1C(=O)O [GINKGOLIC ACID 17:1]
32.6 µM: HCT-15
inactive: HT-29 > 100 µM | HL-60 > 100 µM | SF-268 > 100 µM | MCF7 > 100 µM | SNB-75 > 100 µM | OVCAR-3 > 100 µM | PC-3 51.9 µM | Malme-3M > 100 µM | SNB-19 61.1 µM | UO-31 > 100 µM | SK-MEL-28 > 100 µM | DU-145 > 100 µM | UACC-257 > 100 µM | EKVX > 100 µM | RPMI-8226 84.3 µM | K562 65.9 µM | MDA-MB-231 > 100 µM | MDA-N > 100 µM | SK-MEL-2 31.7 µM | U-251 > 100 µM | A549 > 100 µM | M14 > 100 µM | HCT-116 > 100 µM | ACHN > 100 µM | UACC-62 34 µM | NCI-H23 > 100 µM | RXF 393 > 100 µM | KM12 > 100 µM | CCRF-CEM 99.1 µM | COLO 205 > 100 µM | TK-10 65 µM | BT-549 > 100 µM | T47D > 100 µM | NCI-H460 > 100 µM | SR 45.4 µM | SK-OV-3 > 100 µM | SF-539 > 100 µM | SK-MEL-5 35.5 µM | HCC 2998 > 100 µM | MDA-MB-435 > 100 µM | HOP-62 > 100 µM | IGROV-1 > 100 µM | NCI-H226 60.7 µM | SW-620 > 100 µM | NCI/ADR-RES > 100 µM | A498 > 100 µM | SN12C > 100 µM | SF-295 59.3 µM | NCI-H522 > 100 µM | OVCAR-4 > 100 µM | HOP-92 > 100 µM | 786-0 > 100 µM | OVCAR-5 > 100 µM | CAKI-1 > 100 µM | OVCAR-8 > 100 µM | Hs-578T > 100 µM | MOLT-4 83.8 µM

COc1cc(CC2c3cc(OC)c(OC)cc3CCN2C)c(Oc2cc3c(cc2OC)-c2c(O)c(OC)cc4c2C(C3)N(C)CC4)cc1OC (stereo not drawn)
inactive: HT-29 6.82 µM | HL-60 4.01 µM | SF-268 17.8 µM | MCF7 12.5 µM | SNB-75 14.9 µM | OVCAR-3 20.4 µM | PC-3 23.3 µM | Malme-3M 23.8 µM | SNB-19 25.3 µM | UO-31 18.5 µM | SK-MEL-28 20.3 µM | DU-145 24.1 µM | UACC-257 14.5 µM | EKVX 20.5 µM | K562 10.8 µM | MDA-MB-231 18.3 µM | MDA-N 16.7 µM | SK-MEL-2 22.8 µM | U-251 24.5 µM | A549 33.2 µM | M14 5.04 µM | HCT-116 18.1 µM | ACHN 22.9 µM | UACC-62 20.5 µM | LOX IMVI 16.5 µM | NCI-H23 22.2 µM | RXF 393 2.11 µM | KM12 15 µM | CCRF-CEM 18.8 µM | COLO 205 11.4 µM | TK-10 22 µM | BT-549 14.8 µM | T47D 22.1 µM | NCI-H460 18.4 µM | SR 3.68 µM | SK-OV-3 41.1 µM | SF-539 14.1 µM | SK-MEL-5 13.9 µM | HCC 2998 13.1 µM | MDA-MB-435 24 µM | HOP-62 23.7 µM | IGROV-1 20 µM | NCI-H226 26.7 µM | SW-620 39.5 µM | NCI/ADR-RES 20.6 µM | A498 22 µM | SN12C 22.1 µM | SF-295 17.9 µM | NCI-H522 17.8 µM | OVCAR-4 28.3 µM | HOP-92 14.5 µM | 786-0 23.1 µM | OVCAR-5 45.8 µM | CAKI-1 23.7 µM | OVCAR-8 20.8 µM | Hs-578T 18.2 µM | MOLT-4 19.4 µM
14 µM: HCT-15
